Test results taken from ChEMBL document CHEMBL4431383, “Structure-activity relationship of novel series of 1,5-disubstituted tetrazoles as cyclooxygenase-2 inhibitors: Design, synthesis, bioassay screening and molecular docking studies” (Bioorg Med Chem Lett, 2016).

Key:
[1] = biological target: T1, Prostaglandin G/H synthase 1 (Ovis aries, UniProt P05979); experiment: Inhibition of ovine COX1 assessed as PGH2 formation preincubated for 10 mins followed by addition of arachidonic acid as substrate measured after 2 mins by ELISA
T1 sequence (P05979 whole entry): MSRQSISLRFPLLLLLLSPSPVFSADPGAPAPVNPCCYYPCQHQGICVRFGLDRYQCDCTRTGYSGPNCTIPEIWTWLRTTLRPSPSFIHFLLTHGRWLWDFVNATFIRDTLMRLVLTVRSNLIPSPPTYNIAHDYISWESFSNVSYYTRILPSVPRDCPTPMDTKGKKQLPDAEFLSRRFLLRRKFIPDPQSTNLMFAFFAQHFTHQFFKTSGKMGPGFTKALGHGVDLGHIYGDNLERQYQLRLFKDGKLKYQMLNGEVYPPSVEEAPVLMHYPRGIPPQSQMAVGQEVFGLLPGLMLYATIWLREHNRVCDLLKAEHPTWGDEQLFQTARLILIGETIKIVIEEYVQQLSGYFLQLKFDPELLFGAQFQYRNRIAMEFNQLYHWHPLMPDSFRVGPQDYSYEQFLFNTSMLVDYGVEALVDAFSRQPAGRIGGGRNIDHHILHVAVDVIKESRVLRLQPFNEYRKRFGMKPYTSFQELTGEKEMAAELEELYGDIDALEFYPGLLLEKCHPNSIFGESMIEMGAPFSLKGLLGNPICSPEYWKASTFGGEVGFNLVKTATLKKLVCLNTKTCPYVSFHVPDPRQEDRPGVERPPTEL

[2] = biological target: T2, Prostaglandin G/H synthase 2 (Homo sapiens, UniProt P35354); experiment: Inhibition of recombinant human COX2 assessed as PGH2 formation preincubated for 10 mins followed by addition of arachidonic acid as substrate measured after 2 mins by ELISA
T2 sequence (P35354 whole entry): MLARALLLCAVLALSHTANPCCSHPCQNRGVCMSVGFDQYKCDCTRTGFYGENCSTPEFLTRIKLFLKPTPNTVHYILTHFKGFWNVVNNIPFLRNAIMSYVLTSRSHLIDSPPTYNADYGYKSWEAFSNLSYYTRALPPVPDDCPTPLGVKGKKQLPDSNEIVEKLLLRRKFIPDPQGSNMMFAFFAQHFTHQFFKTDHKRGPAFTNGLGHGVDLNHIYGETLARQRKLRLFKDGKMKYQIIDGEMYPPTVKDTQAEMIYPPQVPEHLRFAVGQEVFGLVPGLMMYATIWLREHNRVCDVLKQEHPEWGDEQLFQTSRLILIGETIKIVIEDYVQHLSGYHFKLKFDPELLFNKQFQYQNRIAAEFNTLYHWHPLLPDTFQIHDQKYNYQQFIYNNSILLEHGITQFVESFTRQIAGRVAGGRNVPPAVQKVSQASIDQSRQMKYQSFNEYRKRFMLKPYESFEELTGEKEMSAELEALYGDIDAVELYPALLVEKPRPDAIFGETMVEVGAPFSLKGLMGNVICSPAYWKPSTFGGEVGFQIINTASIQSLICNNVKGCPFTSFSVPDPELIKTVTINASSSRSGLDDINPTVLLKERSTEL

[3] = Selectivity ratio of IC50 for ovine COX-1 to IC50 for recombinant human COX-2
[4] = Selectivity ratio of IC50 for recombinant human COX-2 to IC50 for ovine COX-1

IC50 [1] [µM]	IC50 [2] [µM]	Ratio IC50 [3]	Ratio IC50 [4]	Compound
9	> 500	> 0.02	55	CS(=O)(=O)c1ccc(-c2nnnn2-c2ccc(CO)cc2)cc1
100	> 500	> 0.2	–	NS(=O)(=O)c1ccc(-c2nnnn2-c2ccc(O)cc2)cc1
21	24	0.87	1.14	NS(=O)(=O)c1ccc(-c2nnnn2-c2ccc(CO)cc2)cc1
85	> 200	> 0.42	–	CS(=O)(=O)c1ccc(Cc2nnnn2-c2ccc(O)cc2)cc1
> 500	> 300	> 1.7	–	CS(=O)(=O)c1ccc(-c2nnnn2-c2ccc(O)cc2)cc1
> 500	70	> 7.1	–	CS(=O)(=O)c1ccc(-c2nnnn2-c2ccc(CCO)cc2)cc1
> 200	99	> 2	–	NS(=O)(=O)c1ccc(-c2nnnn2-c2ccc(CCO)cc2)cc1
> 200	3	> 67	> 0.015	CS(=O)(=O)c1ccc(Cc2nnnn2-c2ccc(CCO)cc2)cc1
> 200	38	> 5.2	> 0.19	CS(=O)(=O)c1ccc(Cc2nnnn2-c2ccc(CO)cc2)cc1
